# Article PMC11106739, “Discovery and Derivatization of Tridecaptin Antibiotics with Altered Host Specificity and Enhanced Bioactivity” (ACS Chemical Biology, 2024)
# Read-outs that look alike come from different tables or passages of the source. Where a SMILES comes first, the peptide text is derived from it. Bridges are numbered along the chain shown (N, C = ends). [ ]: non-standard residue; d: D form. The star is where a group is joined. d(aIle) = CC[C@H](C)[C@@H](N)C(=O)O; X1 = CC[C@H](C)CCCCC(=O)*; dDab = NCC[C@@H](N)C(=O)O; Octanoyl = CCCCCCCC(=O)*; Dab = NCC[C@H](N)C(=O)O
# Experiments:
# K. pneumoniae ATCC 13883 = type: cell-based, Klebsiella pneumoniae
# Experimental: (§1) All minimum inhibitory concentrations (MICs) were determined according to the Clinical and Standards Laboratory Institute (CLSI) guidelines. In brief, agar plates were inoculated from glycerol stocks and incubated overnight at 35 °C. Peptide DMSO stocks were dispensed into 96-well round-bottom plates using a TECAN D300e dispenser. Colistin sulfate (Sigma-Aldrich) was dissolved in water and serially diluted in a cation-adjusted Mueller Hinton broth (10 μL per well). Final concentrations of the test compounds were 0.06 to 64 μg/mL. Inocula were prepared by direct colony suspension in NaCl at 0.5 MacFarland, which was further diluted 200-fold in cation-adjusted Mueller Hinton broth for a target inoculum of 2 × 10^5 colony forming units (CFUs)/mL. 100 μL portion of the prepared inoculum was added to each well of the prepared plates containing the test compounds. Plates were sealed with parafilm and incubated for 20 h at 35 °C. Images of all plates were recorded, and MIC was assessed visually.
# K. pneumoniae 1228586 = type: cell-based, Klebsiella pneumoniae
# Experimental: as §1
# K. pneumoniae 1227947 = type: cell-based, Klebsiella pneumoniae
# Experimental: as §1
# S. aureus ATCC 29213 = type: cell-based, Staphylococcus aureus
# Experimental: as §1
# S. aureus 1126387 = type: cell-based, Staphylococcus aureus
# Experimental: as §1
# S. aureus UAMS-1625 = type: cell-based, Staphylococcus aureus; conditions: S. aureus UAMS-1625 (BV18); CLSI broth dilution, cation-adjusted Mueller Hinton broth, 20 h, 35 °C, read visually
# Experimental: as §1
# E. coli ATCC 25922 = type: cell-based, Escherichia coli
# Experimental: as §1
# E. coli 1220120 = type: cell-based, Escherichia coli
# Experimental: as §1
# E. coli 1214245 = type: cell-based, Escherichia coli
# Experimental: as §1
# P. aeruginosa 1226072 = type: cell-based, Pseudomonas aeruginosa
# Experimental: as §1
# P. aeruginosa PAO1 = type: cell-based, Pseudomonas aeruginosa
# Experimental: as §1
# P. aeruginosa 1218019 = type: cell-based, Pseudomonas aeruginosa
# Experimental: as §1
# ATCC 25922 = type: cell-based, Enterococcus faecalis
# Experimental: as §1
# E. faecalis ATCC 29212 = type: cell-based, Enterococcus faecalis
# Experimental: as §1
# A. baumannii IHMA 777621 = type: cell-based, Acinetobacter baumannii
# Experimental: as §1
# A. baumannii ATCC 17978 = type: cell-based, Acinetobacter baumannii
# Experimental: as §1
# A. baumannii HUMC1 = type: cell-based, Acinetobacter baumannii
# Experimental: as §1
# E. faecium ATCC 51559 = type: cell-based, Enterococcus faecium
# Experimental: as §1
# E. faecium IHMA 890472 = type: cell-based, Enterococcus faecium
# Experimental: as §1
# HepG2 cells = assay: Cytotoxicity determination (CellTiter-Glo); type: cell-based; conditions: HepG2, medium without serum, 24 h, normalization to the untreated control, 1 to 128 μg/mL tested
# Experimental: HepG2 cells were grown in EMEM (Sigma) supplemented with 2 mM glutamine and 10% fetal bovine serum (Fisher) at 37 °C, 5% CO2. 20′000 cells per well were seeded into clear tissue culture-treated 96-well plates and incubated for 24 h. Peptides, dissolved in DMSO, were dispensed into 96 deep well plates (TECAN D300e dispenser) and diluted to a final concentration of 1 to 128 μg/mL using fresh medium without serum. The next day, the old media were removed from the cells, and 200 μL of the prepared compound dilutions was added per well. Plates were incubated for another 24 h before assessing the cell viability using the CellTiter-Glo kit (Promega) according to the manufacturer’s protocol. IC50s were calculated after normalization to the untreated control.
smiles,measurement,setting,value
CCCCCCCC(=O)N[C@@H](C(=O)N[C@H](CCN)C(=O)NCC(=O)N[C@H](CO)C(=O)N[C@H](Cc1c[nH]c2ccccc12)C(=O)N[C@@H](CO)C(=O)N[C@@H](CCN)C(=O)N[C@H](CCN)C(=O)N[C@@H](Cc1ccc(O)cc1)C(=O)N[C@@H](CCC(=O)O)C(=O)N[C@H](C(=O)N[C@@H](C(=O)N[C@@H](C)C(=O)O)[C@@H](C)CC)C(C)C)C(C)C [Oct-Tyr9] (Octanoyl-[dV][dDab]G[dS][dW]S[Dab][dDab]YEV[d(aIle)]A-OH),MIC,"K. pneumoniae ATCC 13883; ATCC 13883, 20 h",4 µg/mL
same,MIC,"K. pneumoniae 1228586; 1228586, 20 h",4 µg/mL
same,MIC,"K. pneumoniae 1227947; 1227947, 20 h",4 µg/mL
same,MIC,"S. aureus ATCC 29213; ATCC 29213, 20 h",>64 µg/mL
same,MIC,"S. aureus 1126387; 1126387, 20 h",>64 µg/mL
same,MIC,S. aureus UAMS-1625,>64 µg/mL
same,MIC,"E. coli ATCC 25922; ATCC 25922, 20 h",2 µg/mL
same,MIC,"E. coli 1220120; 1220120, 20 h",4 µg/mL
same,MIC,"E. coli 1214245; 1214245, 20 h",2 µg/mL
same,MIC,"P. aeruginosa 1226072; 1226072, 20 h",4 µg/mL
same,MIC,"P. aeruginosa PAO1; PAO1, 20 h",64 µg/mL
same,MIC,"P. aeruginosa 1218019; 1218019, 20 h",4 µg/mL
same,MIC,"ATCC 25922; ATCC 25922, 20 h",64 µg/mL
same,MIC,"E. faecalis ATCC 29212; ATCC 29212, 20 h",64 µg/mL
same,MIC,"A. baumannii IHMA 777621; IHMA 777621, 20 h",32 µg/mL
same,MIC,"A. baumannii ATCC 17978; ATCC 17978, 20 h",32 µg/mL
same,MIC,"A. baumannii HUMC1; HUMC1, 20 h",32 µg/mL
same,MIC,"E. faecium ATCC 51559; ATCC 51559, 20 h",64 µg/mL
same,MIC,"E. faecium IHMA 890472; IHMA 890472, 20 h",32 µg/mL
"CC[C@H](C)CCCCC(=O)N[C@@H](CCN)C(=O)N[C@H](C(=O)N[C@@H](CCN)C(=O)N[C@H]1CCNC(=O)[C@H]([C@@H](C)O)NC(=O)[C@H](CCN)NC(=O)[C@H](CCN)NC(=O)[C@H](CC(C)C)NC(=O)[C@@H](CC(C)C)NC(=O)[C@H](CCN)NC1=O)[C@@H](C)O [colistin, reference compound] (X1-[Dab]T[Dab][Dab][Dab][dL]L[Dab][Dab]T; lactam 4-C (inferred); N-terminus assumed)",MIC,"K. pneumoniae ATCC 13883; K. pneumoniae ATCC 13883 (BV306), CLSI broth dilution, cation-adjusted Mueller Hinton broth, 20 h, 35 °C, read visually",1 µg/mL
same,MIC,"K. pneumoniae 1228586; K. pneumoniae 1228586 (BV1447), CLSI broth dilution, cation-adjusted Mueller Hinton broth, 20 h, 35 °C, read visually",64 µg/mL
same,MIC,"K. pneumoniae 1227947; K. pneumoniae 1227947 (BV1445), CLSI broth dilution, cation-adjusted Mueller Hinton broth, 20 h, 35 °C, read visually",0.5 µg/mL
same,MIC,"S. aureus ATCC 29213; S. aureus ATCC 29213 (BV249), CLSI broth dilution, cation-adjusted Mueller Hinton broth, 20 h, 35 °C, read visually",>64 µg/mL
same,MIC,"S. aureus 1126387; S. aureus 1126387 (BV1402), CLSI broth dilution, cation-adjusted Mueller Hinton broth, 20 h, 35 °C, read visually",>64 µg/mL
same,MIC,S. aureus UAMS-1625,>64 µg/mL
same,MIC,"E. coli ATCC 25922; E. coli ATCC 25922 (BV23), CLSI broth dilution, cation-adjusted Mueller Hinton broth, 20 h, 35 °C, read visually",1 µg/mL
same,MIC,"E. coli 1220120; E. coli 1220120 (BV1475), CLSI broth dilution, cation-adjusted Mueller Hinton broth, 20 h, 35 °C, read visually",0.5 µg/mL
same,MIC,"E. coli 1214245; E. coli 1214245 (BV1469), CLSI broth dilution, cation-adjusted Mueller Hinton broth, 20 h, 35 °C, read visually",32 µg/mL
same,MIC,"P. aeruginosa 1226072; P. aeruginosa 1226072 (BV1551), CLSI broth dilution, cation-adjusted Mueller Hinton broth, 20 h, 35 °C, read visually",0.5 µg/mL
same,MIC,"P. aeruginosa PAO1; P. aeruginosa PAO1 (BV34), CLSI broth dilution, cation-adjusted Mueller Hinton broth, 20 h, 35 °C, read visually",2 µg/mL
same,MIC,"P. aeruginosa 1218019; P. aeruginosa 1218019 (BV1544), colistin-resistant, CLSI broth dilution, cation-adjusted Mueller Hinton broth, 20 h, 35 °C, read visually",>64 µg/mL
same,MIC,"ATCC 25922; E. faecalis ATCC 25922 (BV99), CLSI broth dilution, cation-adjusted Mueller Hinton broth, 20 h, 35 °C, read visually",>64 µg/mL
same,MIC,"E. faecalis ATCC 29212; E. faecalis ATCC 29212 (BV29), CLSI broth dilution, cation-adjusted Mueller Hinton broth, 20 h, 35 °C, read visually",>64 µg/mL
same,MIC,"A. baumannii IHMA 777621; A. baumannii IHMA 777621 (BV94), CLSI broth dilution, cation-adjusted Mueller Hinton broth, 20 h, 35 °C, read visually",64 µg/mL
same,MIC,"A. baumannii ATCC 17978; A. baumannii ATCC 17978 (BV160), CLSI broth dilution, cation-adjusted Mueller Hinton broth, 20 h, 35 °C, read visually",1 µg/mL
same,MIC,"A. baumannii HUMC1; A. baumannii HUMC1 (BV374), CLSI broth dilution, cation-adjusted Mueller Hinton broth, 20 h, 35 °C, read visually",1 µg/mL
same,MIC,"E. faecium ATCC 51559; E. faecium ATCC 51559 (BV159), CLSI broth dilution, cation-adjusted Mueller Hinton broth, 20 h, 35 °C, read visually",>64 µg/mL
same,MIC,"E. faecium IHMA 890472; E. faecium IHMA 890472 (BV144), CLSI broth dilution, cation-adjusted Mueller Hinton broth, 20 h, 35 °C, read visually",>64 µg/mL
same,IC50 on HepG2 w/o FCS,HepG2 cells,>128 µg/mL
